{"source": "patent US20020055512A1", "about": "“Compositions for delivery of a cortisol antagonist” (CORTENDO AB., priority 2000, published 2002)", "experiment": "Solubility of ketoconazole in lipid excipients (observation of undissolved crystals)", "assay_type": "physicochemical", "details": "ambient room temperature; estimated", "experimental": "The solubility of ketoconazole in glycerol monooleate was assessed at 37° C. according to the following method. 2 g samples of ketoconazole (USP) and glycerol monooleate were mixed together in various proportions and put on a magnetic stirrer at 37° C. Samples containing 1, 3 and 5 wt. % of ketoconazole were investigated for the observation of ketoconazole crystals. Samples containing 1 wt. % ketoconazole were completely dissolved after less than 18 h but more than 2 h. Samples containing 3 wt % ketoconazole were almost homogeneous after 48 h, after which no further change of the sample took place. […] Thus, at 37° C. ketoconazole has a limited solubility in glycerol monooleate. It is estimated to be between 1 and 3 wt. %.\nThe solubility of ketoconazole in oleic acid was assessed at ambient room temperature using the method described in Example 1. Samples containing 5, 10, 15 and 33 wt. % of ketoconazole were mixed with oleic acid and the appearance of undissolved ketoconazole was investigated after 24 and 48 h. After 24 hours samples containing 5 wt. % ketoconazole were completely dissolved and after 48 h samples containing 10 wt. % of ketoconazole were completely homogenous and all ketoconazole was dissolved. Thus the solubility of ketoconazole in oleic acid is estimated to be about 10 wt. %."}
{"smiles": "CC(=O)N1CCN(c2ccc(OCC3COC(Cn4ccnc4)(c4ccc(Cl)cc4Cl)O3)cc2)CC1", "note": "(stereo not shown) [ketoconazole, Ketoconazole]", "values": [{"measurement": "solubility of ketoconazole in oleic acid", "value": "about 10 wt. %"}]}
